Assay results as given in patent US20260295053A1, “COMPOUNDS FOR DEGRADATION AND INHIBITION OF KRAS (G12D) PROTEIN” (Shenzhen Ionova Life Science Co., Ltd., priority 2023, published 2026).

How the values were obtained:
AsPC-1 cells = assay: AsPC-1 cell proliferation assay (CellTiter Glo); type: cell-based; conditions: 6 days
Experimental: ASPC-1 and PK-59 cellular assays ASPC-1 (ATCC cat. CRL-1682) and PK-59 (Nanjing Cobioer, Cat. No. CBP61184) were used in KRAS cellular degradation, pERK inhibition and proliferation assays. The two cell lines were maintained following vendor's instructions. For monitoring KRAS (G12D) cellular degradation and pERK biomarker inhibition, cells were seeded into a 96-well plate with 22,000 and 16,000 cells/well for assays in ASPC-1 and PK-59, respectively. Cells were incubated at 37° C. with 5% CO2 and cell density was monitored until ^~90% confluency was reached. Compounds were serially diluted at a 1:3 ratio and dispensed into each well at final concentrations ranging from […] to 1.5 nM. After incubation for 24 hours, the culture media were removed and the cells were subjected to fixation, permeabilization and blocking (Intercept blocking buffer, Li-cor). For KRAS (G12D) degradation, the cells were treated with primary antibody (KRAS G12D antibody, Cell Signaling Technologies, Cat. No. CST14429) and for β-actin (β-actin mAb, Beyotime, Cat. No. AF-5001), and followed by secondary antibodies, Anti-rabbit IgG (H+L) (DyLight™ 800 4×PEG Conjugate) or IRDye® 680RD Goat anti-Mouse IgG. For pERK inhibition assay, cells were treated with primary antibodies for pERK (Phospho-p44/42 MAPK (Erk1/2) (Thr202/Tyr204) (D13.14.4E) XP® Rabbit mAb, Cell Signaling Technologies, Cat. No. CST-4370) and β-actin (β-actin mAb, Beyotime, Cat. No. AF-5001), and followed by secondary antibodies, Anti-rabbit IgG (H+L) (DyLight™ 800 4×PEG Conjugate) or IRDye® 680RD Goat anti-Mouse IgG. Fluorescence signals were read on Odyssey CLX instrument. For cell proliferation assays, cells were seeded into a 96-well plate at 3,500 and 800 cells/well for assays in ASPC-1 and PK-59, respectively. Cells were incubated at 37° C. with 5% CO2 for overnight. Compounds were serially diluted at a 1:3 ratio and dispensed into each well at final concentrations ranging from […] to 1.5 nM. After incubation for 6 days, cell viability reagent (CellTiter Glo, Promega, Cat. No. G7573) was added to each well and luminescence was recorded on Molecular Devices Spectramax iD3 instrument. IC50, half-maximal inhibitory concentration for pERK inhibition or cell proliferation, and DC50, half-maximal degradation concentration in KRAS (G12D) cellular degradation were determined by fitting the corresponding dose response curves using GraphPad Prism software.
Wherein “A” means the value <10 nM, “B” means 10 nM<the value <100 nM, “C” means 100 nM<the value <1000 nM, and “D” means the value >1000 nM, in which, the value means the value of DC50 or IC50. NT means not tested.

KRAS (G12D) = biological target: T1, KRAS (G12D) (Homo sapiens, UniProt P01116, G12D); assay: KRAS (G12D) cellular degradation assay in AsPC-1 cells; type: cell-based; conditions: 24 hours, antibody fluorescence (Odyssey CLX), DC50 half-maximal degradation concentration
T1 construct: in-cell western with KRAS G12D antibody after 24 h
In short: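 Half-maximal degradation (DC50) and inhibition (IC50) concentrations are fitted from dose-response curves spanning […] to 1.5 nM final. KRAS G12D loss is measured by fluorescent antibody staining with β-actin reference after 24 h; growth is measured by ATP luminescence after a 6-day exposure.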

T1 sequence (P01116 1-188 isoform P01116-2 G12D): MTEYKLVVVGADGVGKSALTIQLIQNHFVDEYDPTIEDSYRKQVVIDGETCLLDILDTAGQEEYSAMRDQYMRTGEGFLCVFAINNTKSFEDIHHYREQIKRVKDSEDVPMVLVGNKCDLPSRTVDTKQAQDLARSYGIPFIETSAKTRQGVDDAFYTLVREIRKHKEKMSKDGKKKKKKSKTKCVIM

Row | DC50 (KRAS (G12D)) | IC50 (AsPC-1 cells) | Structure (SMILES) | IC50 (AsPC-1 cells; Homo sapiens, ASPC1, 144 h)
1 | < 10 nM | < 10 nM | CO[C@@H](C)COc1nc(N(C)[C@H]2CCNC2)c2cc(C3CC3)c(-c3c(C)c(F)cc4[nH]ncc34)c(OCc3ccc(-c4cn([C@H](C(=O)N5C[C@H](O)C[C@H]5C(=O)N[C@H](c5ccc(-c6scnc6C)cc5)[C@H](C)O)C(C)C)nn4)cc3)c2n1 [Example 167, (2S,4R)-1-((2S)-2-(4-(4-(((6-cyclopropyl-7-(6-fluoro-5-methyl-1H-indazol-4-yl)-2-((S)-2-methoxypropoxy)-4-(methyl((S)-pyrrolidin-3-yl)amino)quinazolin-8-yl)oxy)methyl)phenyl)-1H-1,2,3-triazol-1-yl)-3-methylbutanoyl)-4-hydroxy-N-((1R,2S)-2-hydroxy-1-(4-(4-methylthiazol-5-yl)phenyl)propyl)pyrrolidine-2-carboxamide] | 
2 | > 1000 nM | > 1000 nM | CCn1nccc1-c1ccc([C@H](CO)NC(=O)[C@@H]2C[C@@H](O)CN2C(=O)[C@H](C(C)C)n2cc(-c3ccc(COc4c(-c5c(C)c(F)cc6[nH]ncc56)c(C5CC5)cc5c(N6C[C@H]7C[C@@H]6CN7)nc(OC[C@H](C)OC)nc45)cc3)nn2)cc1 (single isomer, unassigned) [Example 1B] | 
3 | > 1000 nM |  | CCn1nccc1-c1ccc([C@H](CO)NC(=O)[C@@H]2C[C@@H](O)CN2C(=O)[C@H](C(C)C)n2cc(-c3ccc(COc4c(-c5c(C)c(F)cc6[nH]ncc56)c(C5CC5)cc5c(N6CC7CCC(C6)N7)nc(OC[C@H](C)OC)nc45)cc3)nn2)cc1 (single isomer, unassigned) [Example 13B] | 
4 | 10 to 100 nM |  | CCn1nccc1-c1ccc([C@H](CO)NC(=O)[C@@H]2C[C@@H](O)CN2C(=O)[C@H](C(C)C)n2cc(-c3ccc(COc4c(-c5c(C)c(F)cc6[nH]ncc56)c(C5CC5)cc5c(N6CC7COCC(C6)N7)nc(OC[C@H](C)OC)nc45)cc3)nn2)cc1 [Example 37, (2S,4R)-1-((2S)-2-(4-(4-(((4-(3-oxa-7,9-diazabicyclo[3.3.1]nonan-7-yl)-6-cyclopropyl-7-(6-fluoro-5-methyl-1H-indazol-4-yl)-2-((S)-2-methoxypropoxy)quinazolin-8-yl)oxy)methyl)phenyl)-1H-1,2,3-triazol-1-yl)-3-methylbutanoyl)-N—((R)-1-(4-(1-ethyl-1H-pyrazol-5-yl)phenyl)-2-hydroxyethyl)-4-hydroxypyrrolidine-2-carboxamide] | 
5 | 10 to 100 nM |  | CCn1nccc1-c1ccc([C@H](CO)NC(=O)[C@@H]2C[C@@H](O)CN2C(=O)[C@H](C(C)C)n2cc(-c3ccc(COc4c(-c5c(C)c(F)cc6[nH]ncc56)c(C5CC5)cc5c(N6CCNCCC6C)nc(OC[C@H](C)OC)nc45)cc3)nn2)cc1 (stereo in doubt) [Example 153, (2S,4R)-1-((2S)-2-(4-(4-(((6-cyclopropyl-7-(6-fluoro-5-methyl-1H-indazol-4-yl)-2-((S)-2-methoxypropoxy)-4-((S)-7-methyl-1,4-diazepan-1-yl)quinazolin-8-yl)oxy)methyl)phenyl)-1H-1,2,3-triazol-1-yl)-3-methylbutanoyl)-N—((R)-1-(4-(1-ethyl-1H-pyrazol-5-yl)phenyl)-2-hydroxyethyl)-4-hydroxypyrrolidine-2-carboxamide] | 
6 | 100 to 1000 nM |  | CO[C@@H](C)COc1nc(N2CCCNCC2)c2cc(C3CC3)c(-c3c(C)c(F)cc4[nH]ncc34)c(OCc3ccc(-c4cn([C@H](C(=O)N5C[C@H](O)C[C@H]5C(=O)N[C@H](CO)c5ccc(-c6scnc6C)c6c5CC6)C(C)C)nn4)cc3)c2n1 [Example 221, (2S,4R)-1-((2S)-2-(4-(4-(((6-cyclopropyl-4-(1,4-diazepan-1-yl)-7-(6-fluoro-5-methyl-1H-indazol-4-yl)-2-((S)-2-methoxypropoxy)quinazolin-8-yl)oxy)methyl)phenyl)-1H-1,2,3-triazol-1-yl)-3-methylbutanoyl)-4-hydroxy-N—((S)-2-hydroxy-1-(5-(4-methylthiazol-5-yl)bicyclo[4.2.0]octa-1(6),2,4-trien-2-yl)ethyl)pyrrolidine-2-carboxamide] | 

Continued, compound first:

Row | Structure (SMILES) | DC50 (KRAS (G12D)) | IC50 (AsPC-1 cells) | IC50 (AsPC-1 cells; Homo sapiens, ASPC1, 144 h)
7 | CCn1nccc1-c1ccc([C@@H](NC(=O)[C@@H]2C[C@@H](O)CN2C(=O)[C@H](C(C)C)n2cc(-c3ccc(COc4c(-c5c(C)c(F)cc6[nH]ncc56)c(C5CC5)cc5c(N6C[C@@H]7C[C@H]6CN7)nc(OC6CC7(CCOC7)C6)nc45)cc3)nn2)[C@H](C)O)cc1 (stereo partly drawn) [Example 114, (2S,4R)-1-((2S)-2-(4-(4-(((2-((6-oxaspiro[3.4]octan-2-yl)oxy)-4-((1S,4S)-2,5-diazabicyclo[2.2.1]heptan-2-yl)-6-cyclopropyl-7-(6-fluoro-5-methyl-1H-indazol-4-yl)quinazolin-8-yl)oxy)methyl)phenyl)-1H-1,2,3-triazol-1-yl)-3-methylbutanoyl)-N-((1R,2S)-1-(4-(1-ethyl-1H-pyrazol-5-yl)phenyl)-2-hydroxypropyl)-4-hydroxypyrrolidine-2-carboxamide] | < 10 nM |  | < 10 nM
8 | CCn1nccc1-c1ccc([C@H](CO)NC(=O)[C@@H]2C[C@@H](O)CN2C(=O)[C@H](C(C)C)n2cc(-c3ccc(COc4c(-c5c(C)c(F)cc6[nH]ncc56)c(C5CC5)cc5c(N(C)[C@@H]6CCNC6)nc(O[C@H]6C[C@H](OC)C6)nc45)cc3)nn2)cc1 [Example 205, (2S,4R)-1-((2S)-2-(4-(4-(((6-cyclopropyl-7-(6-fluoro-5-methyl-1H-indazol-4-yl)-2-((1r,3R)-3-methoxycyclobutoxy)-4-(methyl((R)-pyrrolidin-3-yl)amino)quinazolin-8-yl)oxy)methyl)phenyl)-1H-1,2,3-triazol-1-yl)-3-methylbutanoyl)-N—((R)-1-(4-(1-ethyl-1H-pyrazol-5-yl)phenyl)-2-hydroxyethyl)-4-hydroxypyrrolidine-2-carboxamide] | < 10 nM |  | < 10 nM
9 | CCn1nccc1-c1ccc([C@@H](NC(=O)[C@@H]2C[C@@H](O)CN2C(=O)[C@H](C(C)C)n2cc(-c3ccc(COc4c(-c5c(C)c(F)cc6[nH]ncc56)c(C5CCC5)cc5c(N6C[C@@H]7C[C@H]6CN7)nc(O[C@H]6C[C@H](OC)C6)nc45)cc3)nn2)[C@H](C)O)cc1 [Example 136, (2S,4R)-1-((2S)-2-(4-(4-(((4-((1S,4S)-2,5-diazabicyclo[2.2.1]heptan-2-yl)-6-cyclobutyl-7-(6-fluoro-5-methyl-1H-indazol-4-yl)-2-((1r,3S)-3-methoxycyclobutoxy)quinazolin-8-yl)oxy)methyl)phenyl)-1H-1,2,3-triazol-1-yl)-3-methylbutanoyl)-N-((1R,2S)-1-(4-(1-ethyl-1H-pyrazol-5-yl)phenyl)-2-hydroxypropyl)-4-hydroxypyrrolidine-2-carboxamide] | < 10 nM |  | < 10 nM
10 | CO[C@@H](C)COc1nc(N2C[C@@H]3C[C@H]2CN3)c2cc(C3CC3)c(-c3c(C)c(F)cc4[nH]ncc34)c(OCc3ccc(-c4cn([C@H](C(=O)N5C[C@H](O)C[C@H]5C(=O)N[C@H](C#Cc5ccnc6nn(C)cc56)CO)C(C)C)nn4)cc3)c2n1 [Example 191, (2S,4R)-1-((2S)-2-(4-(4-(((4-((1S,4S)-2,5-diazabicyclo[2.2.1]heptan-2-yl)-6-cyclopropyl-7-(6-fluoro-5-methyl-1H-indazol-4-yl)-2-((S)-2-methoxypropoxy)quinazolin-8-yl)oxy)methyl)phenyl)-1H-1,2,3-triazol-1-yl)-3-methylbutanoyl)-4-hydroxy-N—((R)-1-hydroxy-4-(2-methyl-2H-pyrazolo[3,4-b]pyridin-4-yl)but-3-yn-2-yl)pyrrolidine-2-carboxamide] | 10 to 100 nM |  | 
